One assay concerns the target T1, human ADORA3 (Homo sapiens, UniProt P0DMS8).
T1 construct: host or cells: CHO
T1 sequence (P0DMS8 1-318): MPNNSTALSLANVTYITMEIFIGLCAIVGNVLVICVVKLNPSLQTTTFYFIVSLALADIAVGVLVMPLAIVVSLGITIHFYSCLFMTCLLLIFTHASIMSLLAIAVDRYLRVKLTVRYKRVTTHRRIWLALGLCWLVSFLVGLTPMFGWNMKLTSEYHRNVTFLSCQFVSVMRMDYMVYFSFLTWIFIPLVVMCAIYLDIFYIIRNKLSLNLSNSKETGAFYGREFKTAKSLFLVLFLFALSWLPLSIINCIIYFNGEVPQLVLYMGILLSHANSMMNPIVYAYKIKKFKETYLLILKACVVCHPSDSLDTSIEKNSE
Briefly: Calcium flow test (FLIPR), ADORA3 stably transfected CHO. The format is cell-based. The note with it: Table 9. Here is the method: In this experiment, stably transfected cell lines over-expressing adenosine receptor coupled to human Gq were used, and the antagonistic function of Compound 22 was evaluated by testing the changes in intracellular calcium ion concentration. The binding of the A2AR agonist to A2AR could activate a downstream pathway to increase the intracellular calcium ion concentration. The antagonist would competitively occupy the binding site where the agonist binds to A2AR, thereby interrupting the intracellular signal transduction and leading to a change in the intracellular calcium ion concentration. By detecting the strength of the intracellular calcium ion signal, the antagonistic activities of the compound on human ADORA1, ADORA2A, ADORA2B and ADORA3 adenosine receptors were determined. […]
7) The FLIPR instrument software was operated; following a set program, 10 μL of experimental buffer salt solution was added to the cell plate; and fluorescence signals were read. Then, 10 μL of the reference compound of agonist at a predetermined concentration was added to the cell plate, and the fluorescence signals were read. After reading, data was exported by means of “Max-Min” and “Read 91 to Maximum allowed” in the software, the EC80 of each cell line was calculated, and an agonist with a concentration of 6×EC80 was prepared.
9) The FLIPR instrument software was operated; following a set program, 10 μL of the test compound and 10 μL of the reference compound were added at a predetermined concentration to the cell plate; and the fluorescence signals were read. Then, 10 μL of the reference compound of agonist at a concentration of 6×EC80 was added to the cell plate, and the fluorescence signal were read. For the antagonist detection of the compound, data was exported by means of “Max-Min” and “Read 1 to 90” in the software. […]

In assay [1] the target is T2, Human adenosine ADORA3 receptor membrane protein (Homo sapiens, UniProt P0DMS8).
T2 construct: purchased PerkinElmer ES-012-M400UA
T2 sequence (P0DMS8 1-318): T1 sequence (P0DMS8 1-318)
Briefly: Radioisotope ligand competitive binding, ADORA3 ([3H] HEMADO). Particulars: ADORA3 (IC50, nM, n = 3), binding test. Here is the method:
ADORA3: 25 mM HEPES pH 7.4, 10 mM MgCl2, 1 mM CaCl2, 0.5% BSA
4) Preparation of compounds: the test compounds and the reference compounds were separately diluted with 100% DMSO. For the test compounds, the initial concentration was 10 μM, with double secondary wells; 4-fold gradient dilution was carried out at 10 points; and the final working concentration was 0.038 nM-10 μM (for the second and third detection of the test compound against an ADORA2A target, the initial concentration was 2 μM, with double secondary wells, 4-fold gradient dilution was carried out at 10 points, and the final working concentration was 0.0076 nM-2 μM). For the ADORA1, ADORA2A, ADORA2B, and ADORA3 reference compounds, the initial concentration was 1 μM, with double secondary wells, 4-fold gradient dilution was carried out at 10 points, and the final working concentration was 0.0038 nM-1 μM.
1 μL of a sample to be tested and 1 μL of a reference compound were added to a 96-well plate in sequence. […] 100 μL of cells and 100 μL of isotopes were added to all experimental wells. The 96-well plate was sealed; ADORA1, ADORA2B, and ADORA3 were incubated for 1 hour on a shaker (300 rpm) at room temperature (22° C.); and ADORA2A was incubated for 2 hours on a shaker (300 rpm) at room temperature (22° C.). At the same time, a GF/C filter plate was soaked with ADORA1, ADORA2A, ADORA2B, and ADORA3 by using 0.3% PEI for at least 30 minutes at room temperature, at 50 μL/well. After the incubation was completed, the incubated reaction system was collected onto the GF/C filter plate with a Harvester, washed 4 times and then dried for 0.5 hours in an oven at 50° C. The bottom of the dried GF/C filter plate was sealed with a film, 50 μL of scintillation solution was added to each well, which was then sealed with a Top-seal-A film. With Microbeta readings, the data was analyzed by GraphPad Prism 5.0.
% Inhibition=100×(1−(Sample_raw value−Low control_Average)/(High control_Average−Low control_Average))
The data was fitted with “log(inhibitor) vs response-variable slope” in GraphPad Prism 5.0 to obtain IC50.

The text below walks through data of US20230048888A1, “USE OF TRIAZOLOTRIAZINE DERIVATIVE IN TREATMENT OF DISEASES” (ZHEJIANG VIMGREEN PHARMACEUTICALS, LTD., priority 2019, published 2023).

SMILES strings stand for the structures.

As to `Nc1nc2ccc(Cl)cc2c2nc(-c3ccco3)nn12` [CGS-15943, reference compound], the 50% inhibitory concentration (IC50) at human ADORA3 came to 32.1 ± 4.52 nM; in assay [1] (Table 10 (IC50)), 18 ± 11.4 nM; in assay [1] (Table 11) it was 14.5 nM.

Broadly, the IC50 is the midpoint of a concentration-inhibition curve.
